Experimental data reported in patent publication US11020405B2, “Method for prevention or treatment of diabetic complications” (KANGWON NATIONAL UNIVERSITY UNIVERSITY-INDUSTRY COOPERATION …, priority 2017, dated 2021).

Assays:
[1] = test system: human retinal endothelial cells (HRECs); assay: Analysis of ROS of cells (H2DCFDA fluorescence); type: cell-based; settings: 10 ng/mL VEGF with 20 μM midazolam, 5 μM BAPTA-AM, 1 mM NAC, 0.5 μM Trolox, 50 μM cystamine or 20 μM MDC (FIG. 3B)
Method: (§1) Purchased from Applied Cell Biology Research Institute (Cell Systems, Kirkland, Wash.), human retinal endothelial cells (HRECs) were cultured in an M19 medium, containing 20% FBS, 3 ng/mL bFGF, 5 U/mL heparin, 100 U/mL penicillin and […], in a 2% gelatin-coated plate.
(§2) Before the following Test Examples 2 to 7, the HRECs were cultured for 6 hr in a medium containing 1% FBS and an antibiotic agent, thus preparing HRECs of Test Example 1.
With reference to FIG. 3A, the HRECs of Test Example 1 were treated with 0 to 20 μM midazolam, cultured for 30 min, treated with 10 ng/mL VEGF and 10 μM H2DCFDA (Molecular Probes, Eugene, Oreg.), stained for 10 min in a phenol-red-free low-serum medium, and then measured using confocal microscopy to thus determine the fluorescence intensity of single cells.
With reference to FIG. 3B, the HRECs of Test Example 1 were subjected to the respective treatments below and cultured for 30 min. Upon treatment with 10 ng/mL VEGF, treatment with 10 μM H2DCFDA was performed therewith, or alternatively, treatment with 10 μM H2DCFDA was performed alone, followed by staining for 10 min in a phenol-red-free low-serum medium and then measurement via confocal microscopy to thus determine the fluorescence intensity of single cells.

VE-cadherin = assay: Analysis of adherens junction (VE-cadherin staining); type: cell-based, human; settings: HRECs, 10 ng/mL VEGF 90 min with 20 μM midazolam, 5 μM BAPTA-AM, 1 mM NAC, 0.5 μM Trolox, 50 μM cystamine or 20 μM MDC (FIGS. 5, 6)
Method: as §1, §2
The HRECs of Test Example 1 were subjected to the respective treatments below and cultured for 30 min. Here, treatment with 10 ng/mL VEGF was performed for 90 min. Thereafter, the HRECs were treated with 1 mM 5-(biotinamido)pentylamine, incubated for 1 hr, fixed with 3.7% formaldehyde, treated with 0.2% triton X-100, treated with a blocking solution containing 138 mM NaCl, 0.1% Tween 20 and 2% BSA dissolved in a 20 mM Tris (pH 7.6) buffer, incubated for 30 min, incubated with a monoclonal VE-cadherin antibody (1:200; Santa Cruz Biotechnology) for 12 hr or more (overnight), incubated with a FITC-conjugated goat anti-mouse antibody (1:200; Sigma-Aldrich), and then measured using confocal microscopy. Some (the following i), iii), iv), vi), ix)) of the results are shown in FIG. 5 and the VE-cadherin concentrations in the portions represented by the dotted lines in FIG. 5 are shown in FIG. 6. With reference to FIG. 6, 10 randomly selected cells were measured to determine the fluorescence intensity of single cells and thus quantify VE-cadherin.
VE-cadherin, which is a protein that mediates adherens junction, was analyzed to evaluate adherens junction.

[2] = test system: endothelial monolayer of HRECs; assay: Analysis of cell permeability (FITC-dextran, Transwell); type: cell-based, human; settings: HREC monolayer, 10 ng/mL VEGF 90 min with 20 μM midazolam, 5 μM BAPTA-AM, 1 mM NAC, 0.5 μM Trolox, 50 μM cystamine or 20 μM MDC; 40 kDa FITC-dextran 60 min (FIG. 7)
Method: The HRECs were cultured (e.g. about 5 days) until the cell confluence thereof reached an appropriate level on gelatin-coated 0.4 μm polycarbonate membranes of Transwell Permeable Supports (Costar, Corning, N.Y.), followed by the respective treatments below and culture for 30 min. Here, treatment with 10 ng/mL VEGF was performed for 90 min. Thereafter, the HRECs were treated with 1 mg/mL 40 kDa FITC-dextran (Sigma-Aldrich), incubated for 60 min, after which the amount of FITC-dextran that was diffused into the lower chamber through the endothelial monolayer of HERCs was measured using a microplate spectrofluorometer (Molecular Devices, Sunnyvale, Calif.).

[3] = test system: human retinal endothelial cells (HRECs); assay: Analysis of intracellular Ca^2+ (Fluo4-AM, confocal microscopy); type: cell-based; settings: 10 ng/mL VEGF with 5 μM BAPTA-AM, 1 mM NAC, 0.5 μM Trolox, 50 μM cystamine or 20 μM MDC, 30 min (FIG. 2B)
Method: as §1, §2
With reference to FIG. 2A, the HRECs of Test Example 1 were subjected to the respective treatments below, stained with 2 μM Fluo4-AM at 37° C. for 30 min and then measured at time intervals of 10 sec using confocal microscopy (FV-300, Olympus, Tokyo, Japan).
With reference to FIG. 2B, the HRECs of Test Example 1 were subjected to the respective treatments below, cultured for 30 min, stained with 2 μM Fluo4-AM at 37° C. for 30 min and then measured at time intervals of 10 sec using confocal microscopy.

β-catenin = assay: Analysis of adherens junction (β-catenin staining); type: cell-based, human; settings: HRECs, 10 ng/mL VEGF 90 min with 20 μM midazolam, 5 μM BAPTA-AM, 1 mM NAC, 0.5 μM Trolox, 50 μM cystamine or 20 μM MDC (FIGS. 8, 9)
Method: as §1, §2
The HRECs of Test Example 1 were subjected to the respective treatments below and cultured for 30 min. Here, treatment with 10 ng/mL VEGF was performed for 90 min. Thereafter, the HRECs were treated with 1 mM 5-(biotinamido)pentylamine, incubated for 1 hr, fixed with 3.7% formaldehyde, treated with 0.2% triton X-100, treated with a blocking solution containing 138 mM NaCl, 0.1% Tween 20 and 2% BSA dissolved in a 20 mM Tris (pH 7.6) buffer, incubated for 30 min, incubated with a monoclonal β-catenin antibody (1:200; Santa Cruz Biotechnology) for 12 hr or more, incubated with a FITC-conjugated goat anti-mouse antibody, and measured using confocal microscopy. Some (the following i), ii), iii), iv)) of the results are shown in FIG. 8, and the β-catenin concentrations in the portions represented by the dotted lines in FIG. 8 are shown in FIG. 9. With reference to FIG. 9, 10 randomly selected cells were measured to determine the fluorescence intensity of single cells and thus quantify β-catenin.
β-catenin, which is a protein that mediates adherens junction like VE-cadherin, was analyzed to evaluate adherens junction.

In the case of CC(=O)OCOC(=O)CN(CC(=O)OCOC(C)=O)c1ccccc1OCCOc1ccccc1N(CC(=O)OCOC(C)=O)CC(=O)OCOC(C)=O [BAPTA-AM], the “ROS concentration (VEGF-induced) compared to control” value [1] is reported as “no significant ROS concentration increase was observed”, the “VE-cadherin concentration / adherens junction disruption due to VEGF” value (VE-cadherin) is reported as “the effect of preventing the adherens junction disruption was also observed” and the “FITC-dextran diffused into lower chamber (cell permeability) / adherens junction disruption due to VEGF” value [2] is reported as “the effect of preventing the adherens junction disruption was also observed”. The “changes in intracellular Ca^2+ (VEGF-induced) compared to control” value (from here on “changes”) [3] was “no significant changes in intracellular Ca^2+” and the “β-catenin concentration / adherens junction disruption due to VEGF” value (β-catenin) was “the effect of preventing the adherens junction disruption was also observed”.

With CN(C)c1cccc2c(S(=O)(=O)NCCCCCN)cccc12 [MDC] the “ROS concentration (VEGF-induced) compared to control” value [1] was “ROS concentration was increased”, the “VE-cadherin concentration / adherens junction disruption due to VEGF” value (VE-cadherin) was “the effect of preventing the adherens junction disruption was also observed” and the “FITC-dextran diffused into lower chamber (cell permeability) / adherens junction disruption due to VEGF” value [2] was “the effect of preventing the adherens junction disruption was also observed”. The “changes” value [3] was “intracellular Ca^2+ elevation was caused” and the “β-catenin concentration / adherens junction disruption due to VEGF” value (β-catenin) was “the effect of preventing the adherens junction disruption was also observed”.

Cc1c(C)c2c(c(C)c1O)CCC(C)(C(=O)O)O2 (stereo not shown) [Trolox] was tested, and the “ROS concentration (VEGF-induced) compared to control” value [1] was “no significant ROS concentration increase was observed”, the “VE-cadherin concentration / adherens junction disruption due to VEGF” value (VE-cadherin) was “the effect of preventing the adherens junction disruption was also observed” and the “FITC-dextran diffused into lower chamber (cell permeability) / adherens junction disruption due to VEGF” value [2] was “the effect of preventing the adherens junction disruption was also observed”. The “changes” value [3] was “intracellular Ca^2+ elevation was caused” and the “β-catenin concentration / adherens junction disruption due to VEGF” value (β-catenin) was “the effect of preventing the adherens junction disruption was also observed”.

For NCCSSCCN [cystamine], the “ROS concentration (VEGF-induced) compared to control” value [1] was “ROS concentration was increased”, the “VE-cadherin concentration / adherens junction disruption due to VEGF” value (VE-cadherin) was “the effect of preventing the adherens junction disruption was also observed” and the “FITC-dextran diffused into lower chamber (cell permeability) / adherens junction disruption due to VEGF” value [2] was “the effect of preventing the adherens junction disruption was also observed”. For the same molecule, the “changes” value [3] was “intracellular Ca^2+ elevation was caused” and the “β-catenin concentration / adherens junction disruption due to VEGF” value (β-catenin) was “the effect of preventing the adherens junction disruption was also observed”.

With CC(=O)N[C@@H](CS)C(=O)O [NAC] the “ROS concentration (VEGF-induced) compared to control” value [1] was “no significant ROS concentration increase was observed”, the “VE-cadherin concentration / adherens junction disruption due to VEGF” value (VE-cadherin) was “the effect of preventing the adherens junction disruption was also observed” and the “FITC-dextran diffused into lower chamber (cell permeability) / adherens junction disruption due to VEGF” value [2] was “the effect of preventing the adherens junction disruption was also observed”. The “changes” value [3] was “intracellular Ca^2+ elevation was caused” and the “β-catenin concentration / adherens junction disruption due to VEGF” value (β-catenin) was “the effect of preventing the adherens junction disruption was also observed”.
